These are literature values, as cited in patent US20250064731A1, “A LIQUID PHARMACEUTICAL FORMULATION OF CLONIDINE HYDROCHLORIDE” (NOVUMGEN LIMITED, priority 2022, published 2025).

For the data set the following is noted: after oral administration.

Take `Clc1cccc(Cl)c1N=C1NCCN1` [clonidine, N-(2,6-dichlorophenyl)-4,5-dihydro-1H-imidazol-2-amine]: the “absorption from the gastrointestinal tract” value is reported as “almost completely absorbed” and the liver metabolism result is given as “rapid liver metabolism”.
